Test results published in ChEMBL document CHEMBL3832881, “CO-ADD antimicrobial screening data of OSM samples” (2017).

Experiments:
[1] = tested on: Staphylococcus aureus; assay: Antibacterial activity against Staphylococcus aureus MRSA ATCC 43300; Growth inhibition at 32 ug/mL in CAMBH media using NBS plates.; format: functional, ATCC 43300; MRSA; conditions: ASSAY_TEST Inhibition of Bacterial Growth, CONC 32 ug.mL-1, detection method Absorption (OD600), MEDIA CAMHB, plate type NBS, 384well, time 18 hr
[2] = tested on: Escherichia coli; assay: Antibacterial activity against Escherichia coli ATCC 25922; Growth inhibition at 32 ug/mL in CAMBH media using NBS plates.; format: functional, ATCC 25922; Type strain; conditions: Type strain, ASSAY_TEST Inhibition of Bacterial Growth, CONC 32 ug.mL-1, detection method Absorption (OD600), MEDIA CAMHB, plate type NBS, 384well, time 18 hr
[3] = tested on: Klebsiella pneumoniae; assay: Antibacterial activity against Klebsiella pneumoniae MDR ATCC 70063; Growth inhibition at 32 ug/mL in CAMBH media using NBS plates.; format: functional, ATCC 700603; MDR; conditions: ATCC 700603, ASSAY_TEST Inhibition of Bacterial Growth, CONC 32 ug.mL-1, detection method Absorption (OD600), MEDIA CAMHB, plate type NBS, 384well, time 18 hr
[4] = tested on: Pseudomonas aeruginosa; assay: Antibacterial activity against Pseudomonas aeruginosa ATCC 27853; Growth inhibition at 32 ug/mL in CAMBH media using NBS plates.; format: functional, ATCC 27853; Type strain; conditions: Type strain, ASSAY_TEST Inhibition of Bacterial Growth, CONC 32 ug.mL-1, detection method Absorption (OD600), MEDIA CAMHB, plate type NBS, 384well, time 18 hr
[5] = tested on: Acinetobacter baumannii; assay: Antibacterial activity against Acinetobacter baumannii ATCC 19606; Growth inhibition at 32 ug/mL in CAMBH media using NBS plates.; format: functional, ATCC 19606; Type strain; conditions: Type strain, ASSAY_TEST Inhibition of Bacterial Growth, CONC 32 ug.mL-1, detection method Absorption (OD600), MEDIA CAMHB, plate type NBS, 384well, time 18 hr
[6] = tested on: Candida albicans; assay: Antifungal activity against Candida albicans ATCC 90028; Growth inhibition at 32 ug/mL in YNB media using NBS plates.; format: functional, ATCC 90028; CLSI reference; conditions: CLSI reference, ASSAY_TEST Inhibition of Fungal Growth, CONC 32 ug.mL-1, detection method Absorption (OD600), plate type NBS, 384well, time 18 hr
[7] = tested on: Cryptococcus neoformans; assay: Antifungal activity against Cryptococcus neoformans H99 ATCC 208821; Growth inhibition at 32 ug/mL in YNB media using NBS plates.; format: functional, ATCC 208821; H99 Type strain; conditions: H99 Type strain, ASSAY_TEST Inhibition of Fungal Growth, CONC 32 ug.mL-1, detection method Resazurin, Absorption (OD600-OD570), plate type NBS, 384well, time 18 hr
[8] = tested on: Staphylococcus aureus; assay: Antibacterial activity against Staphylococcus aureus MRSA ATCC 43300; MIC in CAMBH media using NBS plates.; format: functional, ATCC 43300; MRSA; conditions: ASSAY_TEST Inhibition of Bacterial Growth, detection method Absorption (OD600), MEDIA CAMHB, plate type NBS, 384well, time 18 hr
[9] = tested on: Escherichia coli; assay: Antibacterial activity against Escherichia coli ATCC 25922; MIC in CAMBH media using NBS plates.; format: functional, ATCC 25922; Type strain; conditions: Type strain, ASSAY_TEST Inhibition of Bacterial Growth, detection method Absorption (OD600), MEDIA CAMHB, plate type NBS, 384well, time 18 hr
[10] = tested on: Klebsiella pneumoniae; assay: Antibacterial activity against Klebsiella pneumoniae MDR ATCC 70063; MIC in CAMBH media using NBS plates.; format: functional, ATCC 700603; MDR; conditions: ATCC 700603, ASSAY_TEST Inhibition of Bacterial Growth, detection method Absorption (OD600), MEDIA CAMHB, plate type NBS, 384well, time 18 hr
[11] = tested on: Pseudomonas aeruginosa; assay: Antibacterial activity against Pseudomonas aeruginosa ATCC 27853; MIC in CAMBH media using NBS plates.; format: functional, ATCC 27853; Type strain; conditions: Type strain, ASSAY_TEST Inhibition of Bacterial Growth, detection method Absorption (OD600), MEDIA CAMHB, plate type NBS, 384well, time 18 hr
[12] = tested on: Acinetobacter baumannii; assay: Antibacterial activity against Acinetobacter baumannii ATCC 19606; MIC in CAMBH media using NBS plates.; format: functional, ATCC 19606; Type strain; conditions: Type strain, ASSAY_TEST Inhibition of Bacterial Growth, detection method Absorption (OD600), MEDIA CAMHB, plate type NBS, 384well, time 18 hr
[13] = tested on: Candida albicans; assay: Antifungal activity against Candida albicans ATCC 90028; MIC in YNB media using NBS plates.; format: functional, ATCC 90028; CLSI reference; conditions: CLSI reference, ASSAY_TEST Inhibition of Fungal Growth, detection method Absorption (OD630), plate type NBS, 384well, time 18 hr
[14] = tested on: Cryptococcus neoformans; assay: Antifungal activity against Cryptococcus neoformans H99 ATCC 208821; MIC in YNB media using NBS plates.; format: functional, ATCC 208821; H99 Type strain; conditions: H99 Type strain, ASSAY_TEST Inhibition of Fungal Growth, detection method Resazurin, Absorption (OD600-OD570), plate type NBS, 384well, time 18 hr
[15] = Cytotoxicity against HEK293 cells; CC50 by Resazurin assay in DMEM (10% FBS) media using TC plates; format: toxicity, cell-based, ATCC CRL1573; set-up: time 18 hr; conditions: human

Row | Compound | inhibition at 32 µg/mL [1] | inhibition at 32 µg/mL [2] | inhibition at 32 µg/mL [3] | inhibition at 32 µg/mL [4] | inhibition at 32 µg/mL [5] | inhibition at 32 µg/mL [6] | inhibition at 32 µg/mL [7] | MIC [8] | MIC [9] | MIC [10] | MIC [11] | MIC [12] | MIC [13] | MIC [14] | CC50 at 18 h [15]
1 | Nc1ncnc2cc(-c3ccc(C(=O)N4CCOCC4)cc3)sc12 | 22.2% | 8.6% | 5.4% | 2.4% | 8.3% | 1% | -1.2% | – | – | – | – | – | – | – | –
2 | O=C(CCCC[C@@H]1SC[C@@H]2NC(=O)N[C@@H]21)NCCCn1cc(CN2CCCNCCNCCCNCC2)nn1 | 19.4% | 15.2% | 12.5% | 10.9% | 23% | 2.8% | 41.9% | – | – | – | – | – | – | – | –
3 | COc1ccc(-n2c(C)cc(CN3CCC4(CC3)OCCc3sccc34)c2C)cc1 | 55% | 22.4% | 15.4% | 22.6% | 4.6% | 2.4% | -0.2% | > 32 µg/mL | > 32 µg/mL | > 32 µg/mL | > 32 µg/mL | > 32 µg/mL | > 32 µg/mL | > 32 µg/mL | > 32 µg/mL
4 | COc1ccc(-n2c(C)cc(/C=C3\S/C(=N\c4cccc(O)c4)NC3=O)c2C)cc1 | 8.9% | 2.1% | -1.3% | -0.1% | -4.5% | 2.5% | -6.8% | – | – | – | – | – | – | – | –
5 | COc1cc2c(cc1OC)C1(CCN(Cc3ccccc3)CC1)OCC2 | 16.9% | 17.8% | 16.4% | 23.6% | 7.9% | 2.2% | -8.2% | – | – | – | – | – | – | – | –
6 | O=C(Nc1cccc(Cl)c1)c1cncc2nnc(-c3ccc(OC(F)(F)F)cc3)n12 | 5.8% | 3.5% | 1.6% | 4% | -5.2% | 3.5% | -2.8% | – | – | – | – | – | – | – | –
7 | O=C(Nc1cccc(Cl)c1F)c1cncc2nnc(-c3ccc(OC(F)F)cc3)n12 | 1.4% | -1.1% | -0.7% | 1% | -9.8% | 1.1% | -7.5% | – | – | – | – | – | – | – | –
8 | Cc1cc(C(=O)OCC(N)=O)c(C)n1-c1ccc(F)cc1 | 24.9% | 13.4% | 12.3% | 6% | 12.2% | 7.5% | -2.2% | – | – | – | – | – | – | – | –
9 | Nc1ncnc2cc(-c3cccc(S(N)(=O)=O)c3)sc12 | 27.6% | 17.9% | 9.5% | 2.3% | 7.5% | 8.9% | -4.6% | – | – | – | – | – | – | – | –
